Assay results: article PMC3858832 (Journal of Controlled Release, 2013)
Each block holds one substance with its values, some of them ahead of it. Where no end group is shown, it is not given here.

Legend:
[1] = test system: A549 cells; assay: Luciferase reporter gene transfection of A549 cells; format: cell-based, human; settings: light units per well
[2] = Far-UV circular dichroism pH titration, midpoint of conformational transition (pKα); format: physicochemical; settings: far-UV CD intensity at 220 nm vs pH; peptide 30-50 μM in 5 mM Tris amine titrated with HClO4; 37 °C (310 K); average of two or more independent experiments
Excerpt: Therefore, we first investigated whether reducing hydrogen-bonding opportunities at the Dap side chain amine would improve its tolerance by cells in culture. Alkylation of the Dap primary amine may however also impact on the pKa. […] Measurement of side chain pKa in a peptide undergoing a conformational transition associated with a change in aggregation state is hindered by the large amounts of material required for potentiometric analyses and the unfavourable line broadening observed in NMR for self-associated peptides. Instead, we have observed the cooperative, pH responsive, change of conformation of cationic amphipathic peptides in aqueous solution using far-UV CD (Supp. Fig. 1B/C). LADap (Sup. Fig. 1B) and LADap(Me2) (Supp. Fig. 1C) adopt an α-helix conformation when dissolved in neutral or slightly basic aqueous solution and, when titrated with acid, an increasingly disordered conformation is observed. The CD intensity at 220 nm is considered indicative of α-helix content and can be plotted as a function of pH (Supp. Fig. 1D/E). […] Although other interactions may be expected to contribute to the pKα when compared with the pKa, an increase of the same magnitude (~ 0.6 pH units) is seen in both the pKα for the Dap rich peptide and the pKa for the model compound following dimethylation (Supp. Fig. 1D/E; Table 1).
Far-UV CD spectra were obtained for LAH4-L1, LAH6-L1 and the Dap and mono-methyl Dap containing analogues in aqueous Tris amine buffer at various pH (Supp. Fig. 4). […] For LAH4-L1, the pKα = 5.29 ± 0.25 and is in agreement with previous work while pKα = 4.45 ± 0.25 for LAH6-L1 is substantially higher than that reported recently for LAH6 peptides of greater hydrophobicity. The response of LADap4-L1 at 6.64 ± 0.08 is substantially more basic than the histidine-containing analogue. […]
Circular dichroism experiments - Peptides were dissolved in 5 mM Tris amine without pH adjustment at a final concentration of between 30 and 50 μM. The samples were titrated down by adding 0.3% or 1% (v/v) HClO4 solution in micro-litre amounts. ClO4- is optically […]
by HClO4 makes a significant improvement on spectral quality in the far-UV region. CD spectra were acquired on a Chirascan™ Spectrometer (Applied Photophysics, Leatherhead, UK) with samples maintained at 310 K. For pH titration experiments, far-UV CD spectra were obtained with the samples titrated down by adding 0.3% or 1% (v/v) HClO4 solution in micro-litre amounts. Spectra were recorded from 260 to 180 nm using a 0.5 mm path length and were processed using Chirascan software where a spectrum of the peptide free solution was subtracted and Savitzky-Gorlay smoothing with a convolution width of 5 points applied.
Results for all CD assay measurements are expressed as an average of two or more independent repeated experiments. […]
The pellets, containing lipid vesicles and associated peptides were transferred to Bruker 4 mm MAS rotors for NMR measurements. Lipid vesicles were also prepared in this way in the absence of peptide.
Solid-state NMR - 2H quadrupole echo experiments for samples containing either POPC-d31 or POPS-d31 were performed at 61.46 MHz on a Bruker Avance 400 NMR

[3] = test system: GAPDH expression in A549 cells; assay: siRNA-mediated silencing of GAPDH expression in A549 cells (Western blot densitometry), with or without BALF; format: cell-based, human; settings: Western blot densitometry 72 h post transfection
Method: (§3) The abilities of the peptides to successfully mediate specific silencing of GAPDH expression were then assessed in A549 cells (Fig. 2B), MCF-7 cells (Fig. 2C), HUVEC (Fig. 3A), THP-1 cells differentiated into macrophages (Fig. 4A) and undifferentiated THP-1 cells in suspension (Fig. 4B). Specific reductions in expression of GAPDH were assessed by densitometry of Western blots where the effects of administering siRNA targeting GAPDH was compared with that of non-targeting siRNA on the expression of GAPDH as endogenous reporter and β-actin as internal toxicity/specificity control (Figs. 2D, 3B, 4C).
To test the suitability of the peptides for future pulmonary delivery applications in vivo the ability of the peptides to mediate silencing of GAPDH expression in A549 cells was repeated in the presence of bronchoalveolar lavage fluid (BALF) as a model for airway surface liquid (ASL) (Fig. 2E/F).
(§4) siRNA transfection - A549, MCF-7 and THP-1 cells, were transfected with peptide/siRNA
complexes containing 50 or 100 pmol GAPDH siRNA or negative control siRNA/well in 6-
well plates, giving a final siRNA concentration of 50 or 100 nM. Cells were seeded at the
following densities; A549 and MCF-7 - 1 × 10^5 cells per well, THP-1 in suspension – 5 ×
10^5 cells per well, differentiated THP-1 – 1 × 10^6 cells per well.

[4] = test system: A549 cells; assay: Protein content per well as measure of cytotoxicity during transfection of A549 cells; format: cell-based, human; settings: luciferase plasmid transfection, compared with LADap(Me2)
Excerpt: The pKα of LADap(Me2) is raised by N,N-dimethylation and is likely to be too high to substantially aid endosomal release; dimethylation nevertheless has beneficial effects on the nucleic acid transfer properties of the resulting peptide. […] However, the protein content of the cells, commonly used to calibrate the amount of specific luciferase activity, can be misleading. […] Accordingly, the transfection efficacies of LADap and Lipofectamine 2000™ (4:1) in this experiment are substantially overstated. When luciferase activity is plotted per well (Supp. Fig. 1H), not only is the robust and non-toxic transfection efficacy of LAH4-L1 evident, offering a 13.0 fold improvement over Lipofectamine 2000™, but also the advantages of LADap(Me2) over LADap are clear. The luciferase delivery efficacy of LADap(Me2) however was insufficient for it to be considered for siRNA delivery and further modifications were conceived.
Luciferase Activity (light units/10 s)
Luciferase Activity (light units/10 s/mg protein)
Mean Residue Ellipticity @220 nm (deg cm […]
Supplementary Figure 1. […] The midpoint of the conformational transition is determined as 6.22 ± 0.16 for LADap4 (D) and 6.80 ± 0.11 for LADap(Me2)4 (E). […] Lipofectamine and LADap4 are toxic to A549 cells but the N,N-dimethylation of Dap (LADap(Me2)4) reduces toxicity and increases gene transfer efficacy despite the high pKα determined in […]

[5] = Solubility in aqueous media / 50% trifluoroethanol; format: physicochemical
Method: (§1) A further six N,N-dimethyl-Dap variant, LADap(Me2)6-A1 was prepared in an attempt to circumvent this by reducing the hydrophobicity by substituting four leucines with alanine.
Supplementary Figure 6. far-UV CD spectrum of LADap(Me2)6-L1 in 50% TFE.
A further six N,N-dimethyl-Dap variant, LADap(Me2)6-A1 was prepared in an attempt to circumvent this by reducing the hydrophobicity by substituting four leucines with alanine. While a small improvement in […]
spectrum was obtained (Supp. Fig. 6) which indicated the desired α-helix conformation would theoretically be obtainable if it could be delivered to the endosomal membrane.
(§2) (1 picture or pasted object on this page, not shown here)

[6] = test system: MCF-7 cells; assay: Luciferase reporter gene transfection of MCF-7 cells; format: cell-based, human; settings: 1 μg luciferase plasmid/well, 48 h
[7] = test system: GAPDH expression in suspension monocyte THP-1 cells; assay: siRNA-mediated silencing of GAPDH expression in suspension monocyte THP-1 cells (Western blot densitometry); format: cell-based, human; settings: siRNA at 20 or 40 nM, peptide/siRNA 10:1 w/w, Western blot 72 h, three independent experiments
Method: as §3
Cells were transfected with peptide/siRNA complexes containing GAPDH siRNA (+) or negative control siRNA (−) and β-actin served as an internal control for equal protein loading and off target effects. Densitometry results are shown for as an average of three independently repeated experiments (C). […] Vectors were prepared as for siRNA transfection experiments and the peptide to siRNA weight ratio was 10:1 in all cases.
The cells were transfected with Lipofectamine 2000™ at 2 μl per
well under the same conditions.
as §4
complexes containing 50 or 100 pmol GAPDH siRNA or negative control siRNA/well in 6- […]
The bound secondary antibodies were detected with ECL™ Western blotting detection […]

[8] = Analytical HPLC retention time as indicator of peptide hydrophobicity; format: physicochemical; settings: 5-90% water/acetonitrile gradient, Waters Symmetry C8, 5 μm, 7.8 x 100 mm, Abs 215 nm
Method: as §1
Supplementary Figure 5. Analytical HPLC of three Dap rich peptides with differing levels of alkylation. A 5-90% water/acetonitrile gradient system was used using a Waters Symmetry™ C8, 5 μm, 7.8 x 100 mm column. The N-methylation of LADap-6-L1 to LADap(Me)6-L1 reduces the retention time of the peptide marginally however N,N-dimethylation to LADap(Me2)6-L1 causes a substantial shift to longer retention time and is consistent with the insolubility of this latter peptides in aqueous media. A fourth peptide, […]
alanine residues did improve hydrophobicity but not sufficiently to make the peptide readily soluble in […]
as §2

Substance: KKXLLAXLLXLLALLALXLLXALKXK-NH2 [LADap(Me2)6-L1, 26-residue peptide with six N,N-dimethyl-Dap residues]
solubility in 50% trifluoroethanol ([5]; 50% trifluoroethanol): soluble in 50% trifluoroethanol
solubility in aqueous media [5]: insoluble in aqueous media

Substance: KKXLLAXLLXLLALLALXLLXALKXK-NH2 [LADap6-L1, 26-residue peptide with six Dap residues]
pKα at 37 °C (midpoint of the main conformational transition) [2]: 5.67 ± 0.17

Substance: KKALLAXALXLLALLALXLAXALKKA-NH2 [LADap4-L1, LAH4-L1 derivative comprising four Dap residues]
pKα at 37 °C (midpoint of the main conformational transition) [2]: 6.64 ± 0.08

Substance: KKXLLAXLLXLLALLALXLLXALKXK-NH2 [LADap(Me)6-L1, 26-residue peptide with six N-methyl Dap residues]
reduction of GAPDH expression [7]: 92.3 ± 3.7%
reduction of GAPDH expression (silencing) ([3]; Opti-MEM I): 88.0 ± 6.8%

Substance: KKHLLAHLLHLLALLALHLLHALKHK-NH2 [LAH6-L1]
pKα at 37 °C (midpoint of the main conformational transition) [2]: 4.45 ± 0.25

Substance: KKXLLAXALXALLALLAXLAXALKXK-NH2 [LADap(Me2)6-A1, more hydrophilic six N,N-dimethyl-Dap variant, four leucines substituted with alanine]
HPLC retention time (measure of hydrophobicity) [8]: 28.37 min
solubility in aqueous media [5]: insufficiently soluble

Further lines, with some results ahead:

pKα at 37 °C (midpoint of the main conformational transition) [2]: 5.29 ± 0.25
Substance: KKALLAHALHLLALLALHLAHALKKA-NH2 [LAH4-L1, reference compound]
fold improvement in luciferase activity per well over Lipofectamine 2000 (4:1) [1]: 13.0 fold
reduction of GAPDH expression (silencing) ([3]; 50% BALF): 29.4 ± 11.8%
reduction of GAPDH expression (silencing) ([3]; Opti-MEM I): 73.5 ± 3.7%

pKα at 37 °C (midpoint of the main conformational transition) [2]: 6.22 ± 0.16
Substance: KKLAXALXLLALLWLXLAXALKKA-NH2 [LADap, 24-residue cationic amphipathic peptide with four Dap residues]
cytotoxicity by protein content of wells [4]: notably more toxic

pKα at 37 °C (midpoint of the main conformational transition) [2]: 5.33
Substance: KKLAHALHLLALLWLHLAHALKKA-NH2 [reference compound]

pKα at 37 °C (midpoint of the main conformational transition) [2]: 6.62 ± 0.04
Substance: KKALLAXALXLLALLALXLAXALKKA-NH2 [LADap(Me)4-L1, LAH4-L1 derivative comprising four N-methylated Dap residues]
fold improvement in luciferase expression over LADap4-L1 [6]: 4.1 fold
fold improvement in luciferase expression over LAH4-L1 [6]: 2.0 fold

pKα at 37 °C (midpoint of the main conformational transition) [2]: 6.80 ± 0.11
Substance: KKLAXALXLLALLWLXLAXALKKA-NH2 [LADap(Me2), 24-residue cationic amphipathic peptide with four N,N-dimethyl-Dap residues]
